In publication PMC8908036, “N-Acetyldopamine dimers from Oxya chinensis sinuosa attenuates lipopolysaccharides induced inflammation and inhibits cathepsin C activity” (Computational and Structural Biotechnology Journal, 2022):

Molecular target: T1, cathepsin C (Mus musculus, UniProt P97821)
T1 construct: gene Ctsc
Experiment: colorimetric enzyme inhibition with H-Gly-Phe-β-naphthylamide; Lineweaver-Burk kinetics and secondary plots (IC50 […]; Kis […])
Type: biochemical

T1 sequence (P97821 25-134): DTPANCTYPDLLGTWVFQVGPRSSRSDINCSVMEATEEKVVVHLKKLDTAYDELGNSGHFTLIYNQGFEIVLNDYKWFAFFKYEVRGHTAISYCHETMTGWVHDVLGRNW
T1 sequence (P97821 231-462): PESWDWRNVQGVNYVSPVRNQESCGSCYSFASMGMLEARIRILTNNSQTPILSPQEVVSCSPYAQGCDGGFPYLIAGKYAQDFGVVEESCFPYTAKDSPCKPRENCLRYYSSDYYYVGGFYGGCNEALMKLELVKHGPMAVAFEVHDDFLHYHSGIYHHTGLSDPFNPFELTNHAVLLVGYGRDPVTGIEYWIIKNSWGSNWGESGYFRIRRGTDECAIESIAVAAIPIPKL

CC(=O)NCCc1ccc2c(c1)O[C@H](c1ccc(O)c(O)c1)[C@@H](NC(C)=O)O2 [compound 1, (2R,3S)-2-(3′,4′-dihydroxyphenyl)-3-acetylamino-7-(N-acetyl-2″-aminoethyl)-1,4-benzodioxane]
Ki: 71.6 ± 10.2 µM
